The term IC50 denotes the point on the concentration scale where inhibition reaches its midpoint.

What all share (assay): β-lactamase inhibitory activity, spectrophotometric, nitrocefin
Holding throughout (type): biochemical

For one assay, the target named is KPC-2 (Klebsiella pneumoniae, UniProt Q9F663). As to the method:
(§1) The inhibitory activities of present compounds against various enzymes were measured by spectrophotometric assay using […] and using nitrocefin as a substrate (J. Antimicrob. Chemother., 28, pp 775-776 (1991)). The concentration of inhibitor (IC50) which inhibits by 50% the reaction of hydrolysis of nitrocefin by the enzyme is determined.

The next assay addresses TEM-1 (Escherichia coli, UniProt P62593). The settings on record: nitrocefin substrate, 490 nM as printed. The method, then:
as §1

A further assay deals with CMY-2 (Klebsiella pneumoniae, UniProt Q48434). As to the method:
as §1

The next assay addresses CTX-M-9 (Escherichia coli, UniProt Q9L5C8). The method, then: as §1

Consider `O=C(NO[C@H]1CCNC1)[C@@H]1CC[C@@H]2CN1C(=O)N2OS(=O)(=O)O` [Ex. 2, (2S,5R)-7-oxo-N-[(3S)-pyrrolidin-3-yloxy]-6-(sulfooxy)-1,6-diazabicyclo[3.2.1]octane-2-carboxamide], for which the IC50 against KPC-2 is 73 ± 7 nM; at TEM-1 it was 136 ± 12 nM; on CMY-2, 32 ± 3 nM; at CTX-M-9 it was 127 ± 9 nM.

Values taken from US9505761B2, “Bicyclic compounds and their use as antibacterial agents and beta-lactamase inhibitors” (FEDORA PHARMACEUTICALS INC., priority 2011, dated 2016).
